Entries after “also recorded” stand apart in the source; their conditions may differ.
Legend:
Format in all cases: in vivo
[1] = system: trained sensory panel; test: Sensory triangle test, kokumi taste in chicken broth; settings: for Sensory descriptors: pH 6.5, versus broth without additives
Description: Unless otherwise indicated, all sensory tests are triangle tests and are performed according to the guidelines in “Amtliche Sammlung von Untersuchungsverfahren nach § 35 LMBG (Lebensmittel-und Bedarfsgegenständegesetz)”; L 00.90 7, Untersuchung von Lebensmitteln, Sensorische Prüfverfahren, Dreiecksprüfung (Übernahme der gleichnahmigen Deutschen Norm DIN ISO 4120, Ausgabe Januar 1995), as follows:
The sensory panel is trained to evaluate the taste of aqueous solutions (4 ml each) of the following standard taste compounds by using a triangle test as described in the literature (Wieser and Belitz, Z. Lebensm. Unters. Forsch., 1975, 159, 65-72): sucrose (40 mmol/L) for sweet taste; citric acid (5 mmol/L) for sour taste; NaCl (12 mmol/L) for salt taste; caffeine (2 mmol/L) for bitter taste; and monosodium glutamate (MSG) (6 mmol/L) for umami taste. For kokumi taste, a solution of GSH (glutathione, 10 mmol/L) in diluted chicken broth concentrate (Goumet Bouillon Huhn, Maggi, Singen, Germany; 3 g/100 g bottled water (Evian®)) is prepared and compared to the taste of chicken broth with no glutathione added.
All sensory analyses are performed in a sensory panel room at 22-25° C. over three different sessions by a trained panel of 8 to 10 individuals.
For recording the taste profiles, samples are prepared as indicated in the examples below. Taste profiles of samples are determined in a triangle test in three different sessions. Panellists refrain from eating or drinking for at least 1 hour prior to the session. At the start of the session and before each trial, the subject rinsed with water and expectorated. The participants receive a set of two blanks and one taste sample. Liquid samples are swirled around in the mouth briefly and expectorated. Solid samples are chewed for 20 seconds and then expectorated. […] Each sample with additive is compared to two reference samples without additives. Kokumi intensity is rated according to a scale from 0 to 5 (with 5 most intensive). The additive is added to a consumable and the sample is homogenised. The samples are presented to the sensory panel directly after homogenisation. The sensory panel in all tests included 8 trained individuals.
Chicken Broth is prepared by dilution of 3 g chicken broth concentrate (Gourmet Bouillon Huhn; Maggi, Singen, Germany) with 100 ml water (Evian). Additives are added as specified in table below.
For each sample, kokumi intensity is rated and panelists are asked to describe sensory characteristics.

[2] = system: trained sensory panel; test: Sensory triangle test, kokumi compounds in ketchup; settings: 2500 ppm; for Panelists indicating more meaty, bouillon-like, intensified overall taste: panel of 8
Description: Unless otherwise indicated, all sensory tests are triangle tests and are performed according to the guidelines in “[…] von […]-und Bedarfsgegenständegesetz)”; L 00.90 7, Untersuchung von Lebensmitteln, Sensorische […] Deutschen Norm DIN ISO 4120, Ausgabe Januar 1995), as follows: All sensory analyses are performed in a sensory panel room at 22-25° C. over three different sessions by a trained panel of 8 to 10 individuals. For recording the taste profiles, samples are prepared as indicated in the examples below. Taste profiles of samples are determined in a triangle test in three different sessions. Panellists refrain from eating or drinking for at least 1 hour prior to the session. At the start of the session and before each trial, the subject rinsed with water and expectorated. The participants receive a set of two blanks and one taste sample. Liquid samples are swirled around in the mouth briefly and expectorated. Solid samples are chewed for 20 seconds and then expectorated. […] Each sample with additive is compared to two reference samples without additives. Kokumi intensity is rated according to a scale from 0 to 5 (with 5 most intensive). The additive is added to a consumable and the sample is homogenised. The samples are presented to the sensory panel directly after homogenisation. The sensory panel in all tests included 8 trained individuals. Compounds as indicated in the table below are added to ketchup (Kraft) in a concentration of 2500 ppm.

[3] = system: trained sensory panel; test: Sensory triangle test, kokumi compounds in tomato juice; settings: for Panelists preferring the sample: panel of 8; for Test results (taste description): versus reference without additives
Description: Unless otherwise indicated, all sensory tests are triangle tests and are performed according to the guidelines in “[…] von […]-und Bedarfsgegenständegesetz)”; L 00.90 7, Untersuchung von Lebensmitteln, Sensorische […] Deutschen Norm DIN ISO 4120, Ausgabe Januar 1995), as follows: All sensory analyses are performed in a sensory panel room at 22-25° C. over three different sessions by a trained panel of 8 to 10 individuals. For recording the taste profiles, samples are prepared as indicated in the examples below. Taste profiles of samples are determined in a triangle test in three different sessions. Panellists refrain from eating or drinking for at least 1 hour prior to the session. At the start of the session and before each trial, the subject rinsed with water and expectorated. The participants receive a set of two blanks and one taste sample. Liquid samples are swirled around in the mouth briefly and expectorated. Solid samples are chewed for 20 seconds and then expectorated. […] Each sample with additive is compared to two reference samples without additives. Kokumi intensity is rated according to a scale from 0 to 5 (with 5 most intensive). The additive is added to a consumable and the sample is homogenised. The samples are presented to the sensory panel directly after homogenisation. The sensory panel in all tests included 8 trained individuals. Compounds as indicated in the table below are added to tomato juice (Albi, Germany) in the concentrations indicated below.

[4] = additive 10 mmol/L, pH 6.5, scale 0 to 5 (5 most intensive), broth without additives rated 2

`N[C@@H](CCC(=O)N[C@@H](CS)C(=O)NCC(=O)O)C(=O)O` [GSH, reduced form, Gamma-L-glutamyl-L-cysteinyl-glycine] was tested, and the “Kokumi intensity (0-5)” value [1, 4] was 3.5.
For `N[C@@H](CCC(=O)O)C(=O)[O-].[Na+]` [MSG, mono sodium glutamate], the “Kokumi intensity (0-5)” value [1, 4] was 2 and the Sensory descriptors ([1]; additive 10 mmol/L) was “higher umami (taste of MSG) intensity; also recorded: no effect on mouthfulness and complexity of the taste profile; also recorded: Increased umami taste”.
`[Cl-].[Na+]` [NaCl] was tested, and the “Kokumi intensity (0-5)” value ([1]; additive 30 mmol/L, pH 6.5, scale 0 to 5, broth without additives rated 2) was 2 and the Sensory descriptors ([1]; additive 30 mmol/L) was “more salty than the negative control; also recorded: no effect on mouthfulness and complexity of the taste profile; also recorded: increased salty taste”.
In the case of `CCOC(=O)CC(SC[C@H](NC(=O)CC[C@H](N)C(=O)O)C(=O)O)C(=O)OCC` (stereo partly drawn) [S-(α,β-dicarboxyethyl diethylester) γ-L-glutamyl-L-cysteine], the “Kokumi intensity (0-5)” value [1, 4] was 4.5, the “Panelists indicating more meaty, bouillon-like, intensified overall taste” value [2] was 7 out of 8 and the “Panelists preferring the sample” value ([3]; 1000 ppm) was “all panelists”. The “Test results (taste description)” value ([3]; 1000 ppm) was “even more pronounced kokumi sensation”.
With `CCOC(=O)CC(SC[C@H](NC(=O)CC[C@H](N)C(=O)O)C(=O)NCC(=O)O)C(=O)OCC` (stereo partly drawn) [S-(α,β-dicarboxyethyl diethylester) γ-L-glutamyl-L-cysteinyl-glycine] the “Kokumi intensity (0-5)” value [1, 4] was 3.5, the “Observed effect compared to S-(α,β-dicarboxyethyl diethylester) γ-L-glutamyl-L-cysteine” value [2] was “lower” and the “Panelists indicating more meaty, bouillon-like, intensified overall taste” value [2] was 7 out of 8. For the same compound, the “Panelists preferring the sample” value ([3]; 1000 ppm) was 6 out of 8, the “Test results (taste description)” value ([3]; 1000 ppm) was “more intensive and well-balanced kokumi taste” and the “Test results (taste description)” value ([3]; 5000 ppm) was “increased with ascending concentrations”.
For `COC(=O)CC(SC[C@H](NC(=O)CC[C@H](N)C(=O)O)C(=O)O)C(=O)OC` (stereo partly drawn) [S-(α,β-dicarboxyethyl dimethylester) γ-L-glutamyl-L-cysteine], the “Kokumi intensity (0-5)” value [1, 4] was 4.5.
In the case of `COC(=O)CC(SC[C@H](NC(=O)CC[C@H](N)C(=O)O)C(=O)NCC(=O)O)C(=O)OC` (stereo partly drawn) [S-(α,β-dicarboxyethyl dimethylester) γ-L-glutamyl-L-cysteinyl-glycine], the “Kokumi intensity (0-5)” value [1, 4] was 3.5.
With `CCCOC(=O)CC(SC[C@H](NC(=O)CC[C@H](N)C(=O)O)C(=O)O)C(=O)OCCC` (stereo partly drawn) [S-(α,β-dicarboxyethyl dipropylester) γ-L-glutamyl-L-cysteine] the Sensory descriptors ([1]; additive 10 mmol/L) was “bitter”.
For `CCCOC(=O)CC(SC[C@H](NC(=O)CC[C@H](N)C(=O)O)C(=O)NCC(=O)O)C(=O)OCCC` (stereo partly drawn) [S-(α,β-dicarboxyethyl dipropylester) γ-L-glutamyl-L-cysteinyl-glycine], the Sensory descriptors ([1]; additive 10 mmol/L) was “bitter”.

Source: US8088426B2, “Kokumi flavour compounds and use” (priority 2005, dated 2012)
